Experiments:
Type in all cases: in vivo
[1] = system: CT26 colon cancer tumor; assay: Chemotherapy sensitization in mouse colon cancer subcutaneous tumor model (Example 1); details: CT26 tumor-bearing BALB/c mice, compared with control group; intratumoral 25 μL, CpG-ODN 15 μg per mouse; oxaliplatin 3 mg/kg i.v. days 7, 10, 13, 16
Text: The sodium alginate hydrogel radiotherapy/chemotherapy sensitizing agent encapsulating the immunoadjuvant CpG-ODN was used for chemotherapy sensitization in a mouse colon cancer subcutaneous tumor model. The treatment was started on day 7 after inoculation of the mouse CT26 colon cancer tumor. Tumor-bearing BALB/c mice were randomly divided into the following 4 groups (6 mice in each group): Group 1: control group (untreated); Group 2: intratumoral injection of sodium alginate and intravenous injection of oxaliplatin (ALG+OxPt);
Group 3: intratumoral injection of sodium alginate hydrogel radiotherapy/chemotherapy sensitizing agent encapsulating the immunoadjuvant CpG-ODN (ALG/CpG); Group 4: intratumoral injection of sodium alginate hydrogel radiotherapy/chemotherapy sensitizing agent encapsulating the immunoadjuvant CpG-ODN, and intravenous injection of oxaliplatin (ALG/CpG+OxPt). The final concentration of sodium alginate in each treatment group was 10 mg/mL, the volume of intratumoral injection was 25 μL, and the dose of CpG-ODN per mouse was 15 μg. On days 7, 10, 13 and 16, oxaliplatin was administered intravenously at a dose of 3 mg/kg body weight. After respective treatments for the mice, the tumor growth was measured.

[2] = system: CT26 colon cancer tumor; assay: Immune response evaluation in chemotherapy sensitization, colon cancer subcutaneous tumor mouse model (Example 4); details: day 5 after treatment, CT26 BALB/c mice, compared with control group
Method: The mice were treated on day 7 after the inoculation of CT26 colon cancer tumor. Tumor-bearing BALB/c mice were randomly divided into the following 4 groups (6 mice in each group): Group 1: control group (untreated); Group 2: intratumoral injection of sodium alginate and intravenous injection of oxaliplatin (OxPt); Group 3: intratumoral injection of smart sodium alginate hydrogel preparation (ALG-A-Apt/CpG) capable of ATP-responsive slow release of immunoadjuvant obtained in Step (5) of Example 2; Group 4: intratumoral injection of smart sodium alginate hydrogel preparation capable of ATP-responsive slow release of immunoadjuvant obtained in Step (5) of Example 2 and intravenous injection of oxaliplatin (ALG-A-Apt/CpG@OxPt). The final concentration of sodium alginate in each treatment group was 10 mg/mL, the volume of intratumoral injection was 25 μL, and the dose of CpG-ODN per mouse was 15 μg. On days 7, 10, 13 and 16, oxaliplatin was administered intravenously at a dose of 3 mg/kg body weight. On day 5 after the treatment, mice in each group were sacrificed, and the maturity of dendritic cells in inguinal lymph nodes, percentage of CD8 positive T cells in the tumor, and ratio of CD8 positive T cells to regulatory T cells was identified.

[3] = system: CT26 colon cancer tumor; assay: Chemotherapy sensitization with smart hydrogel in colon cancer subcutaneous tumor mouse model (Example 3); details: CT26 tumor-bearing BALB/c mice, compared with control group; CpG-ODN 15 μg per mouse intratumoral; oxaliplatin 3 mg/kg i.v. days 7, 10, 13, 16
Method: The mice were treated on day 7 after the inoculation of CT26 colon cancer tumor. Tumor-bearing BALB/c mice were randomly divided into the following 6 groups (6 mice in each group): Group 1: control group (untreated); Group 2: intratumoral injection of sodium alginate and intravenous injection of oxaliplatin (ALG+OxPt); Group 3: intratumoral injection of mixture of sodium alginate with CpG-ODN (ALG/CpG); Group 4: intratumoral injection of mixture of sodium alginate and CpG-ODN and intravenous injection of oxaliplatin (ALG/CpG+OxPt); Group 5: intratumoral injection of smart sodium alginate hydrogel preparation (ALG-Aapt/CpG) capable of ATP-responsive slow release of immunoadjuvant obtained in Step (5) of Example 2; Group 6: intratumoral injection of smart sodium alginate hydrogel preparation capable of ATP-responsive slow release of immunoadjuvant obtained in Step (5) of Example 2, and intravenous injection of oxaliplatin (ALG-Aapt/CpG+OxPt). The final concentration of sodium alginate in each treatment group was 10 mg/mL, the volume of intratumoral injection was 25 μL, and the dose of CpG-ODN per mouse was 15 μg. On days 7, 10, 13 and 16, oxaliplatin was administered intravenously at a dose of 3 mg/kg body weight. After respective treatments for the mice, the tumor growth was measured.

Substance: oxaliplatin [ALG+OxPt]
- tumor growth [1]: significantly inhibited
- percentage of CD8 positive T cells in the tumor [2]: not significantly improved
- ratio of CD8 positive T cells to regulatory T cells [2]: not significantly improved
- maturity of dendritic cells (DC) in lymph nodes ([2]; inguinal lymph nodes): not significantly improved
- tumor growth [3]: only partially inhibited

From patent US20240148874A1, “IMMUNOADJUVANT-BASED HYDROGEL COMPOSITION AND USE THEREOF” (SOOCHOW UNIVERSITY, priority 2020, published 2024)
